The numbers were not newly measured in PMC12694011, “Update and ADMET Profile of the Latin American Natural Product Database: LANaPDB” (Molecular Informatics, 2025), which cites them from elsewhere.

On the set-up of data set [1]: method as in PMID 19947605. The following applies: amphoteric drugs.

Regarding `CC1(C)S[C@@H]2[C@H](/N=C/N3CCCCCC3)C(=O)N2[C@H]1C(=O)O` [amdinocillin], the “paracellular transport (in words)” value in data set [1] is on record as “undergo extensive paracellular transport”.

For the molecule `Fc1ccc(C(c2ccc(F)cc2)N2CCN(C/C=C/c3ccccc3)CC2)cc1` [flunarizine], the “hERG channel blocking (in words)” value in the data set on hERG channel is listed as “potent hERG channel blockers”.

Take `Nc1nc(O)c2ncn(COC(CO)CO)c2n1` [ganciclovir]: in data set [1], the “paracellular transport (in words)” value is given as “undergo extensive paracellular transport”.

As to `OCCN1CCN(CCCN2c3ccccc3Sc3ccc(Cl)cc32)CC1` [perphenazine], the “hERG channel blocking (in words)” value in the data set on hERG channel is reported as “potent hERG channel blockers”.

In the case of `O=c1[nH]c2ccccc2n1C1CCN(CCCC(c2ccc(F)cc2)c2ccc(F)cc2)CC1` [pimozide], the “hERG channel blocking (in words)” value with hERG channel is recorded as “potent hERG channel blockers”.

Turning to `CN1C(C(=O)Nc2ccccn2)=C(O)c2ccccc2S1(=O)=O` [piroxicam], the “paracellular transport (in words)” value in data set [1] was “undergo extensive paracellular transport”.

For `N[C@@H]1[C@H]2CN(c3nc4c(cc3F)c(=O)c(C(=O)O)cn4-c3ccc(F)cc3F)C[C@@H]12` [trovafloxacin], in data set [1], the “paracellular transport (in words)” value is reported as “undergo extensive paracellular transport”.
